Reference: patent publication US9468212B2, “Antifungal compositions” (DSM IP ASSETS B.V., priority 2013, dated 2016)
Several values for one entry are separate records, joined by “and”; a condition that tells them apart may be missing. Equal values may be shown once.

Columns and labels:
Penicillium italicum = assay: Treatment of oranges: wounded, inoculated with Penicillium italicum, wound treated with antifungal composition (Examples 7-9); format: in vivo; conditions: for Observed antifungal activity O (%) / Number of moulded oranges/total number of 8 oranges: oranges, 20° C.
Protocol: (§1) The expected antifungal activity (E in %) of the combined antifungal composition comprising both active ingredients was calculated according to the Colby equation (Colby, 1967): E=X+Y−[(X·Y)/100] wherein X and Y are the observed antifungal activities (in %) of the individual active ingredients X and Y, respectively.
Eight fresh, organic oranges were used per treatment. Each orange was soaked in a 180 ppm hypochlorite solution for 10 minutes, then rinsed thoroughly with fresh tap water and dried. The peel of each disinfected orange was wounded once using a cork borer according to the method described by de Lapeyre de Bellaire and Dubois (1987). Subsequently, each wound was inoculated with 10 μl of a Penicillium italicum suspension containing 5×10^5 of spores/ml. After incubation for 3 hours at 20° C., each wound and the orange peel area of 1 cm around the wound was treated with in total […] of a freshly prepared aqueous antifungal composition comprising either 500 ppm natamycin (DSM Food Specialties, Delft, The Netherlands), 300 ppm fludioxonil or both. Each antifungal composition also comprised 3.2% (w/w) beeswax, 0.8% (w/w) glycerol, 0.7% (w/w) polyoxyethylene sorbitan monostearate (Tween 60), 0.1% (w/w) polyoxyethylene sorbitan monooleate (Tween 80), 0.05% (w/w) methylhydroxyethyl-cellulose (MHEC), 0.03% (w/w) anti-foaming agent, 0.02% (w/w) xanthan gum, 0.02% (w/w) citric acid, 0.01% (w/w) lactic acid and 0.01% potassium sorbate. A composition without natamycin or fludioxonil was used as control.
The treated oranges were incubated in a closed box in the dark at 20° C. and assessed on mould growth during a 27-day incubation period.
(§2) The experiment was conducted as described in Example 7, except for the fact that each wounded and inoculated orange was treated with 150 μl of a freshly prepared aqueous antifungal composition comprising either 250 ppm natamycin (DSM Food Specialties, Delft, The Netherlands), 100 ppm fludioxonil or both. During incubation, the treated oranges were assessed on mould growth according to the two methods described in Example 5.
as §2, with “500” for “250”, “400” for “100”, “fenpiclonil” for “fludioxonil”, “a 23-day incubation period,” for “incubation,”

Botrytis cinerea = assay: Treatment of strawberries: wounded, inoculated with Botrytis cinerea, dipped in antifungal composition (Examples 5, 6); format: in vivo; conditions: 20° C.
Protocol: Twelve fresh, organic strawberries were used per treatment. Each strawberry was wounded with a 0.5 mm long cut and each wound was inoculated with 10 μl of a Botrytis cinerea suspension containing 1×10^5 of spores/ml. After a 3-hour incubation period at 20° C., each strawberry was dipped individually for 1 minute in a freshly prepared aqueous antifungal composition comprising either 500 ppm natamycin (DSM Food Specialties, Delft, The Netherlands), 500 ppm fludioxonil or both. Each antifungal composition also comprised 3.2% (w/w) beeswax, 0.8% (w/w) glycerol, 0.7% (w/w) polyoxyethylene sorbitan monostearate (Tween 60), 0.1% (w/w) polyoxyethylene sorbitan monooleate (Tween 80), 0.05% (w/w) methylhydroxyethyl-cellulose (MH EC), 0.03% (w/w) anti-foaming agent, 0.02% (w/w) xanthan gum, 0.02% (w/w) citric acid, 0.01% (w/w) lactic acid and 0.01% potassium sorbate. A composition without natamycin or fludioxonil was used as control. […] The treated strawberries were incubated in a closed box in the dark at 20° C. for 19 days.
as §1
as §2, with “5,” for “7,”, “strawberry” for “orange”, “dipped individually for 1 minute in” for “treated with 150 μl of”, “250” for “100”, “strawberries” for “oranges”

Structure (SMILES): N#Cc1c[nH]cc1-c1cccc2c1OC(F)(F)O2 [Fludioxonil, fludioxonil]
- moulded oranges of the 8 oranges (Penicillium italicum; 250 ppm natamycin, 100 ppm fludioxonil or both, after 14 through 27 days of incubation): 8
- Observed antifungal activity O (%) (Penicillium italicum; 250 ppm natamycin, 100 ppm fludioxonil or both, 26-27 days): 0%
- Observed antifungal activity O (%) (Penicillium italicum; 250 ppm natamycin, 100 ppm fludioxonil or both, 19 days): 9%
- Observed antifungal activity O (%) (Penicillium italicum; 250 ppm natamycin, 100 ppm fludioxonil or both, 20 days): 2%
- Observed antifungal activity O (%) (Penicillium italicum; 250 ppm natamycin, 100 ppm fludioxonil or both, 21 days): 0%
- Observed antifungal activity O (%) (Penicillium italicum; 250 ppm natamycin, 100 ppm fludioxonil or both, 22 days): 0%
- Observed antifungal activity O (%) (Penicillium italicum; 250 ppm natamycin, 100 ppm fludioxonil or both, 23 days): 0%
- Observed antifungal activity O (%) (Penicillium italicum; 250 ppm natamycin, 100 ppm fludioxonil or both, 25 days): 0%
- Number of moulded oranges/total number of 8 oranges (Penicillium italicum; 250 ppm natamycin, 100 ppm fludioxonil or both, Day 14-18): 8/8
- Number of moulded oranges/total number of 8 oranges (Penicillium italicum; 250 ppm natamycin, 100 ppm fludioxonil or both, Day 19-22): 8/8
- Number of moulded oranges/total number of 8 oranges (Penicillium italicum; 250 ppm natamycin, 100 ppm fludioxonil or both, Day 23-27): 8/8
- Observed antifungal activity O (%) (Penicillium italicum; 500 ppm natamycin, 300 ppm fludioxonil or both, 22-27 days): 17%
- Observed antifungal activity O (%) (Penicillium italicum; 500 ppm natamycin, 300 ppm fludioxonil or both, 18 days): 17%
- Observed antifungal activity O (%) (Penicillium italicum; 500 ppm natamycin, 300 ppm fludioxonil or both, 19 days): 17%
- Observed antifungal activity O (%) (Penicillium italicum; 500 ppm natamycin, 300 ppm fludioxonil or both, 20 days): 17%
- Observed antifungal activity O (%) (Penicillium italicum; 500 ppm natamycin, 300 ppm fludioxonil or both, 21 days): 17%
- Number of moulded oranges/total number of 8 oranges (Penicillium italicum; 500 ppm natamycin, 300 ppm fludioxonil or both, Day 18-27): 7 and 7/8
- Observed antifungal activity O (%) (Botrytis cinerea; 250 ppm natamycin, 250 ppm fludioxonil or both, 6 days): 89%
- Observed antifungal activity O (%) (Botrytis cinerea; 250 ppm natamycin, 250 ppm fludioxonil or both, 7 days): 81%
- Observed antifungal activity O (%) (Botrytis cinerea; 250 ppm natamycin, 250 ppm fludioxonil or both, 8 days): 81%
- Observed antifungal activity O (%) (Botrytis cinerea; 250 ppm natamycin, 250 ppm fludioxonil or both, 9 days): 69%
- Observed antifungal activity O (%) (Botrytis cinerea; 250 ppm natamycin, 250 ppm fludioxonil or both, 10 days): 55%
- Observed antifungal activity O (%) (Botrytis cinerea; 250 ppm natamycin, 250 ppm fludioxonil or both, 11 days): 44%
- Observed antifungal activity O (%) (Botrytis cinerea; 250 ppm natamycin, 250 ppm fludioxonil or both, 12 days): 32%
- Observed antifungal activity O (%) (Botrytis cinerea; 250 ppm natamycin, 250 ppm fludioxonil or both, 13 days): 26%
- Observed antifungal activity O (%) (Botrytis cinerea; 250 ppm natamycin, 250 ppm fludioxonil or both, 14 days): 19%
- Observed antifungal activity O (%) (Botrytis cinerea; 250 ppm natamycin, 250 ppm fludioxonil or both, 15 days): 11%
- Observed antifungal activity O (%) (Botrytis cinerea; 250 ppm natamycin, 250 ppm fludioxonil or both, 16 days): 6.0%
- Observed antifungal activity O (%) (Botrytis cinerea; 250 ppm natamycin, 250 ppm fludioxonil or both, 18 days): 1.2%
- Observed antifungal activity O (%) (Botrytis cinerea; 250 ppm natamycin, 250 ppm fludioxonil or both, 19 days): 0%
- Number of moulded strawberries/total number of 12 strawberries (Botrytis cinerea; 250 ppm natamycin, 250 ppm fludioxonil or both, Day 6-8): 5 and 5/12
- Number of moulded strawberries/total number of 12 strawberries (Botrytis cinerea; 250 ppm natamycin, 250 ppm fludioxonil or both, Day 9): 8 and 8/12
- Number of moulded strawberries/total number of 12 strawberries (Botrytis cinerea; 250 ppm natamycin, 250 ppm fludioxonil or both, Day 10): 9 and 9/12
- Number of moulded strawberries/total number of 12 strawberries (Botrytis cinerea; 250 ppm natamycin, 250 ppm fludioxonil or both, Day 11): 10 and 10/12
- Number of moulded strawberries/total number of 12 strawberries (Botrytis cinerea; 250 ppm natamycin, 250 ppm fludioxonil or both, Day 12): 12 and 12/12
- Number of moulded strawberries/total number of 12 strawberries (Botrytis cinerea; 250 ppm natamycin, 250 ppm fludioxonil or both, Day 13): 12 and 12/12
- Number of moulded strawberries/total number of 12 strawberries (Botrytis cinerea; 250 ppm natamycin, 250 ppm fludioxonil or both, Day 14): 12 and 12/12
- Number of moulded strawberries/total number of 12 strawberries (Botrytis cinerea; 250 ppm natamycin, 250 ppm fludioxonil or both, Day 15): 12 and 12/12
- Observed antifungal activity O (%) (Botrytis cinerea; 500 ppm natamycin, 500 ppm fludioxonil or both, 7 days): 90%
- Observed antifungal activity O (%) (Botrytis cinerea; 500 ppm natamycin, 500 ppm fludioxonil or both, 8 days): 80%
- Observed antifungal activity O (%) (Botrytis cinerea; 500 ppm natamycin, 500 ppm fludioxonil or both, 9 days): 67%
- Observed antifungal activity O (%) (Botrytis cinerea; 500 ppm natamycin, 500 ppm fludioxonil or both, 10 days): 56%
- Observed antifungal activity O (%) (Botrytis cinerea; 500 ppm natamycin, 500 ppm fludioxonil or both, 11 days): 52%
- Observed antifungal activity O (%) (Botrytis cinerea; 500 ppm natamycin, 500 ppm fludioxonil or both, 12 days): 44%
- Observed antifungal activity O (%) (Botrytis cinerea; 500 ppm natamycin, 500 ppm fludioxonil or both, 13 days): 33%
- Observed antifungal activity O (%) (Botrytis cinerea; 500 ppm natamycin, 500 ppm fludioxonil or both, 14 days): 24%
- Observed antifungal activity O (%) (Botrytis cinerea; 500 ppm natamycin, 500 ppm fludioxonil or both, 15 days): 17%
- Observed antifungal activity O (%) (Botrytis cinerea; 500 ppm natamycin, 500 ppm fludioxonil or both, 16 days): 13%
- Observed antifungal activity O (%) (Botrytis cinerea; 500 ppm natamycin, 500 ppm fludioxonil or both, 18 days): 4.8%
- Observed antifungal activity O (%) (Botrytis cinerea; 500 ppm natamycin, 500 ppm fludioxonil or both, 19 days): 3.6%
- Number of moulded strawberries/total number of 12 strawberries (Botrytis cinerea; 500 ppm natamycin, 500 ppm fludioxonil or both, Day 7): 3 and 3/12
- Number of moulded strawberries/total number of 12 strawberries (Botrytis cinerea; 500 ppm natamycin, 500 ppm fludioxonil or both, Day 8): 5 and 5/12
- Number of moulded strawberries/total number of 12 strawberries (Botrytis cinerea; 500 ppm natamycin, 500 ppm fludioxonil or both, Day 9): 8 and 8/12
- Number of moulded strawberries/total number of 12 strawberries (Botrytis cinerea; 500 ppm natamycin, 500 ppm fludioxonil or both, Day 10-11): 9 and 9/12
- Number of moulded strawberries/total number of 12 strawberries (Botrytis cinerea; 500 ppm natamycin, 500 ppm fludioxonil or both, Day 12): 9 and 9/12
- Number of moulded strawberries/total number of 12 strawberries (Botrytis cinerea; 500 ppm natamycin, 500 ppm fludioxonil or both, Day 13): 11 and 11/12
- Number of moulded strawberries/total number of 12 strawberries (Botrytis cinerea; 500 ppm natamycin, 500 ppm fludioxonil or both, Day 14): 12 and 12/12
- Number of moulded strawberries/total number of 12 strawberries (Botrytis cinerea; 500 ppm natamycin, 500 ppm fludioxonil or both, Day 15): 12 and 12/12
- Number of moulded strawberries/total number of 12 strawberries (Botrytis cinerea; 500 ppm natamycin, 500 ppm fludioxonil or both, Day 16-17): 12 and 12/12
